Assays:
[1] = target: T1, KMT9 (Homo sapiens, UniProt Q9Y5N5); test: Microscale thermophoresis (MST) KMT9 binding; details: microscale thermophoresis, His-tag labelled KMT9 (20 nM); read-out: MST
T1 sequence (Q9Y5N5 1-214): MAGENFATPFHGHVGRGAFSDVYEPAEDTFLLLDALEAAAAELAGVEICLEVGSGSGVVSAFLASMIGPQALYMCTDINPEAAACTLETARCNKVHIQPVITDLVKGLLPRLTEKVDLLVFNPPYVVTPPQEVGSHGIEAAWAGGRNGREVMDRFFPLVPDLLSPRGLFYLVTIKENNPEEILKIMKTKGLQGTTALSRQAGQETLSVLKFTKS
T1 sequence (Q9UI30 1-120 isoform Q9UI30-2 partner): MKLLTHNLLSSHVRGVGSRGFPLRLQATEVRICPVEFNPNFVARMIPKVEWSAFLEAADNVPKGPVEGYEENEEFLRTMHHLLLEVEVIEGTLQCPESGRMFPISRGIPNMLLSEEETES
Outline: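 His-tagged KMT9 (20 nM), RED-Tris-NTA labelled, titrated with varying compound concentrations in 25 mM HEPES pH 7.5, 100 mM NaCl, 1 mM DTT, 0.05% Tween. MST at 40% MST and 100% LED power, Nano-RED excitation; Kd binned A ≤10 nM, B 10–100, C 100–1000, D >1000 nM.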

[2] = target: T1, KMT9; test: KMT9 thermal shift assay (SyproOrange); format: binding; details: ΔTm; 500 µM compound, 2 μM KMT9, 5X SO; read-out: Thermal shift
Outline: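 Recombinant KMT9 was incubated with compound and SyproOrange at 25° C in 50 mM BTP pH 8.5, 1 mM MgCl2, 1 mM DTT. It was then heated from 20° C to 95° C at 1° C per 15 s with fluorescence read each step. Tm came from a Boltzmann sigmoidal fit; ΔTm relative to DMSO control, binned in 5 K ranges.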

[3] = target: T1, KMT9; test: KMT9 methyltransferase inhibition assay, 3H-SAM scintillation (entries 1-154); format: biochemical; details: entries 1-154: 3H-SAM assay, 25 nM KMT9, 5 μM ETF1
Outline: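 Final 25 nM KMT9, 5 μM ETF1 (residues 140-275), 0.3 μM 3H-SAM plus 0.7 μM SAM in pH 8.5 BTP buffer, 2 h at 30° C. TCA-quenched, filter-washed, methylation counted by scintillation; % inhibition vs DMSO and no-enzyme controls, IC50 from four-parameter fit.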

| Kd [1] | ΔTm at 500 µM [2] | IC50 [3] | SMILES |
| --- | --- | --- | --- |
| 100 to 1000 nM | 10 to 15 °C | 1 to 10 µM | Nc1ncnc2c1c(-c1ncns1)cn2[C@@H]1C[C@H](CNCCCNCCc2ccccc2)[C@@H](O)[C@H]1O [Compound 601, (1R,2S,3R,5R)-3-(4-amino-5-(1,2,4-thiadiazol-5-yl)-7H-pyrrolo[2,3-d]pyrimidin-7-yl)-5-(((3-(phenethylamino)propyl)amino)methyl)cyclopentane-1,2-diol] |
| 10 to 100 nM | 15 to 20 °C | 0.1 to 1 µM | Nc1ncnc2c1c(-c1nccs1)cn2[C@@H]1C[C@H](CNCCCNCCc2ccc(F)cc2)[C@@H](O)[C@H]1O [Compound 602, (1R,2S,3R,5R)-3-[4-Amino-5-(1,3-thiazol-2-yl)pyrrolo[2,3-d]pyrimidin-7-yl]-5-{[(3-{[2-(4-fluorophenyl)ethyl]amino}propyl)amino]methyl}cyclopentane-1,2-diol] |
| ≤ 10 nM | 15 to 20 °C | 0.1 to 1 µM | Nc1ncnc2c1ccn2[C@@H]1C[C@H](CN(CCCNCCc2ccc(F)cc2)c2c[nH]nc2Br)[C@@H](O)[C@H]1O [Compound 603, (1R,2S,3R,5R)-3-{4-Aminopyrrolo[2,3-d]pyrimidin-7-yl}-5-{[(3-bromo-2H-pyrazol-4-yl)(3-{[2-(4-fluorophenyl)ethyl]amino}propyl)amino]methyl}cyclopentane-1,2-diol] |
| ≤ 10 nM | 15 to 20 °C | < 0.1 µM | Nc1ncnc2c1c(-c1ccn(S(=O)(=O)c3ccccc3)n1)cn2[C@@H]1C[C@H](CNCCCNCCc2ccccc2)[C@@H](O)[C@H]1O [Compound 604, (1R,2S,3R,5R)-3-(4-Amino-5-(1-(phenylsulfonyl)-1H-pyrazol-3-yl)-7H-pyrrolo[2,3-d]pyrimidin-7-yl)-5-(((3-(phenethylamino)propyl)amino)methyl)cyclopentane-1,2-diol] |
| 10 to 100 nM | 15 to 20 °C | 0.1 to 1 µM | Nc1ncnc2c1c(-c1nc(Cc3ccccc3)cs1)cn2[C@@H]1C[C@H](CNCCCNCCc2ccccc2)[C@@H](O)[C@H]1O [Compound 605, (1R,2S,3R,5R)-3-(4-Amino-5-(4-benzylthiazol-2-yl)-7H-pyrrolo[2,3-d]pyrimidin-7-yl)-5-(((3-(phenethylamino)propyl)amino)methyl)cyclopentane-1,2-diol] |
| > 1000 nM | ≤ 10 °C | > 10 µM | CNc1ncnc2c1ccn2[C@@H]1C[C@H](CN(CCCN)c2cn[nH]c2Br)[C@@H](O)[C@H]1O [Compound 606, (1S,2R,3R,5R)-3-{[(3-Aminopropyl)(3-bromo-2H-pyrazol-4-yl)amino]methyl}-5-[4-(methylamino)pyrrolo[2,3-d]pyrimidin-7-yl]cyclopentane-1,2-diol] |
| 100 to 1000 nM | ≤ 10 °C | > 10 µM | C=Cc1cn([C@@H]2C[C@H](CNCCCNCCc3ccccc3)[C@@H](O)[C@H]2O)c2ncncc12 [Compound 608, (1R,2S,3R,5R)-3-{5-ethenylpyrrolo[2,3-d]pyrimidin-7-yl}-5-[({3-[(2-phenylethyl)amino]propyl}amino)methyl]cyclopentane-1,2-diol] |
| 100 to 1000 nM | ≤ 10 °C | > 10 µM | CCc1cn([C@@H]2C[C@H](CNCCCNCCc3ccccc3)[C@@H](O)[C@H]2O)c2ncncc12 [Compound 609, (1R,2S,3R,5R)-3-{5-ethylpyrrolo[2,3-d]pyrimidin-7-yl}-5-[({3-[(2-phenylethyl)amino]propyl}amino)methyl]cyclopentane-1,2-diol] |
| > 1000 nM | ≤ 10 °C | > 10 µM | C=Cc1cn([C@@H]2C[C@H](CNCCCNCCc3ccccc3)[C@@H](O)[C@H]2O)c2ncnc(C)c12 [Compound 610, (1R,2S,3R,5R)-3-(4-Methyl-5-vinyl-7H-pyrrolo[2,3-d]pyrimidin-7-yl)-5-(((3-(phenethylamino)propyl)amino)methyl)cyclopentane-1,2-diol] |
| > 1000 nM | ≤ 10 °C | > 10 µM | CCc1cn([C@@H]2C[C@H](CNCCCNCCc3ccccc3)[C@@H](O)[C@H]2O)c2ncnc(C)c12 [Compound 611, (1R,2S,3R,5R)-3-(5-ethyl-4-methyl-7H-pyrrolo[2,3-d]pyrimidin-7-yl)-5-(((3-(phenethylamino)propyl)amino)methyl)cyclopentane-1,2-diol] |
| > 1000 nM | ≤ 10 °C | > 10 µM | C=Cc1cn([C@@H]2C[C@H](CNCCCNCCc3ccccc3)[C@@H](O)[C@H]2O)c2ncnc(Cl)c12 [Compound 612, (1R,2S,3R,5R)-3-{4-chloro-5-ethenylpyrrolo[2,3-d]pyrimidin-7-yl}-5-[{{3-[(2-phenylethyl)amino]propyl}amino)methyl]cyclopentane-1,2-diol] |
| 100 to 1000 nM | 10 to 15 °C | 1 to 10 µM | O=S(=O)(c1ccccc1)n1ccc(-c2cn([C@@H]3C[C@H](CNCCCNCCc4ccccc4)[C@@H](O)[C@H]3O)c3ncncc23)n1 [Compound 614, (1S,2R,3R,5R)-3-(((3-(Phenethylamino)propyl)amino)methyl)-5-(5-(1-(phenylsulfonyl)-1H-pyrazol-3-yl)-7H-pyrrolo[2,3-d]pyrimidin-7-yl)cyclopentane-1,2-diol] |
| > 1000 nM | ≤ 10 °C | > 10 µM | CNC(=O)[C@H]1C[C@@H](n2cc3c4c(ncnc42)NCCC3)[C@H](O)[C@@H]1O [Compound 624, (1S,2R,3S,4R)-2,3-Dihydroxy-N-methyl-4-(6,7,8,9-tetrahydro-2H-2,3,5,6-tetraazabenzo[cd]azulen-2-yl)cyclopentane-1-carboxamide] |
| > 1000 nM | ≤ 10 °C | > 10 µM | CN(C)C(=O)[C@H]1C[C@@H](n2cc3c4c(ncnc42)NCCC3)[C@H](O)[C@@H]1O [Compound 625, (1S,2R,3S,4R)-2,3-Dihydroxy-N,N-dimethyl-4-(6,7,8,9-tetrahydro-2H-2,3,5,6-tetraazabenzo[cd]azulen-2-yl)cyclopentane-1-carboxamide] |
| > 1000 nM | ≤ 10 °C | > 10 µM | NC[C@H]1C[C@@H](n2cc3c4c(ncnc42)NC(=O)CC3)[C@H](O)[C@@H]1O [Compound 626, 2-((1R,2S,3R,4R)-4-(Aminomethyl)-2,3-dihydroxycyclopentyl)-2,6,8,9-tetrahydro-7H-2,3,5,6-tetraazabenzo[cd]azulen-7-one] |
| 100 to 1000 nM | ≤ 10 °C | > 10 µM | O=C1CCc2cn([C@@H]3C[C@H](CNCCCNCCc4ccccc4)[C@@H](O)[C@H]3O)c3ncnc(c23)N1 [Compound 627, 2-((1R,2S,3R,4R)-2,3-dihydroxy-4-(((3-(phenethylamino)propyl)amino)methyl)cyclopentyl)-2,6,8,9-tetrahydro-7H-2,3,5,6-tetraazabenzo[cd]azulen-7-one] |
| > 1000 nM | ≤ 10 °C | > 10 µM | CC1CCNc2ncnc3c2c1cn3[C@@H]1C[C@H](CN)[C@@H](O)[C@H]1O (stereo partly drawn) [Compound 629, (1S,2R,3R,5R)-3-(Aminomethyl)-5-(9-methyl-6,7,8,9-tetrahydro-2H-2,3,5,6-tetraazabenzo[cd]azulen-2-yl)cyclopentane-1,2-diol] |
| > 1000 nM | ≤ 10 °C | > 10 µM | NC[C@H]1C[C@@H](n2cc3c4c(ncnc42)NCCCC3)[C@H](O)[C@@H]1O [Compound 630, (1S,2R,3R,5R)-3-(Aminomethyl)-5-(7,8,9,10-tetrahydro-2,3,5,6-tetraazacycloocta [cd]inden-2 (6H)-yl)cyclopentane-1,2-diol] |
| > 1000 nM | ≤ 10 °C | > 10 µM | CCc1cn([C@@H]2C[C@H](CNCCCNCCc3ccccc3)[C@@H](O)[C@H]2O)c2ncnc(Cl)c12 [Compound 632, (1R,2S,3R,5R)-3-(4-chloro-5-ethyl-7H-pyrrolo[2,3-d]pyrimidin-7-yl)-5-(((3-(phenethylamino)propyl)amino)methyl)cyclopentane-1,2-diol] |
| > 1000 nM | ≤ 10 °C | 1 to 10 µM | O[C@@H]1[C@@H](CNCCCNCCc2ccccc2)C[C@@H](n2cc(-c3[nH]ncc3Cl)c3cncnc32)[C@@H]1O [Compound 633, (1R,2S,3R,5R)-3-(5-(4-Chloro-1H-pyrazol-5-yl)-7H-pyrrolo[2,3-d]pyrimidin-7-yl)-5-(((3-(phenethylamino)propyl)amino)methyl)cyclopentane-1,2-diol] |

Source: patent US20250188110A1, “SPECIFIC SMALL MOLECULE INHIBITORS THAT BLOCK KMT9 METHYLTRANSFERASE ACTIVITY AND FUNCTION” (ALBERT-LUDWIGS-UNIVERSITÄT FREIBURG, priority 2021, published 2025)
